Source: patent US20030077645A1, “Superfamily receptor chimeras, translocation assay for superfamily receptor ligands, and methods and kits for detecting and characterizing receptor ligands” (priority 2001, published 2003)

Experiments:
Endogenous GR = biological target: T1, Endogenous GR (Mus musculus, UniProt P06537); test: cell-based; conditions: read-out: Fold induction (luciferase activity normalized to beta-galactosidase activity, vs untreated control)
T1 sequence (P06537 1-792): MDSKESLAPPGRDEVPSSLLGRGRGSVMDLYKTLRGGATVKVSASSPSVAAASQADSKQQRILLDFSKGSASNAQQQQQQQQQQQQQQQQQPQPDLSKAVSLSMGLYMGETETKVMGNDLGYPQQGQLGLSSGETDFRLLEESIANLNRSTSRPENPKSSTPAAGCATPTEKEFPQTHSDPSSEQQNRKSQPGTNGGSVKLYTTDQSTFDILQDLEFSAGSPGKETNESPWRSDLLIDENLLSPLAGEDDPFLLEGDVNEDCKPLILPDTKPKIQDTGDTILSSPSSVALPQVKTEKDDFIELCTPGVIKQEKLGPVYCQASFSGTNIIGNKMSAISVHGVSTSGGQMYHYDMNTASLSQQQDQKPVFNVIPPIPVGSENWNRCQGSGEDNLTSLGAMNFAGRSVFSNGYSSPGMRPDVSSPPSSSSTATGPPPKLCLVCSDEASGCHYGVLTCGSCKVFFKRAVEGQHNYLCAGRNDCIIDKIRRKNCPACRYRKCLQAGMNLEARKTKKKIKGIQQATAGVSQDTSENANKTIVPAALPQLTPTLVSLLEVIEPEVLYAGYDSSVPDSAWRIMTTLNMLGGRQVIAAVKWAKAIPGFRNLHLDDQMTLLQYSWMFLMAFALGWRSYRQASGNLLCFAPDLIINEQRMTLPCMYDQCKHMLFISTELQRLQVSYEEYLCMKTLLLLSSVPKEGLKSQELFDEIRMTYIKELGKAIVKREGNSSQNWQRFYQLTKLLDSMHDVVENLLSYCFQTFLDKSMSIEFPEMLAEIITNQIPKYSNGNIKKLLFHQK
Procedure: (§3) The 1471.1 cell line was used for this transfection study. Cells were maintained in DMEM with 10% characterized fetal calf serum, L-glutamine, and antibiotics. For transient transfections, 2×10^5 cells were resuspended in cold DMEM without serum with the indicated plasmids and incubated on ice for 1 minute. Electroporations were done in an electroporator at 140 V, 3 pulses and 10 msec pulse length followed by a 10 minute recovery on ice. Cells were then plated and allowed to recover overnight in complete media.
(§4) Assay of Receptor Activity. Cells were electroporated with 5 ug pLTRLuc, containing the MMTV LTR, and 0.7 ug pCMV-betaGal with or without 10 ug of the indicated receptor expression vector as described above. Cells were plated in duplicate in 100 mm dishes in DMEM containing 10% charcoal/dextran-treated FCS, as described above, and allowed to recover overnight. The next day, cells were treated with the indicated ligand for 6 hours.
(§5) Transfected cells were treated with the indicated ligand for 6 hours. Fold inductions are shown in the bottom table, and were calculated from the luciferase activity, normalized to beta-galactosidase activity, of ligand induced samples compared to untreated controls.

GR-RAR chimera = conditions: 100 nM ATRA, 6 hours
Procedure: as §3, §4, §5

GFP-GR-RAR = conditions: 100 nM ligand, 1 hour, mouse mammary adenocarcinoma cells
Procedure: (§1) Fluorescence Microscopy. For fluorescence microscopy, cells were electroporated with 2 ug GFP-GR-RAR, GFP-GR, or GFP-RAR. […] GFP was excited with a 488 nm laser lines supplied from a air cooled argon laser. GFP emission was monitored between 505 and 590 nm with a pinhole setting of 1.0.
(§2) FIG. 3 is a series of photographs which depict subcellular trafficking of chimeric receptor. Mouse mammary adenocarcinoma cells were transfected with GFP-GR-RAR (panels A, B, C), GFP-GR (panels D, E, F), or GFP-RAR (panels G, H, I).

GFP-RAR (wild type RAR) = biological target: T2, GFP-RAR (wild type RAR) (Homo sapiens, UniProt P10276); conditions: 100 nM ligand, 1 hour, mouse mammary adenocarcinoma cells
T2 sequence (P10276 1-462): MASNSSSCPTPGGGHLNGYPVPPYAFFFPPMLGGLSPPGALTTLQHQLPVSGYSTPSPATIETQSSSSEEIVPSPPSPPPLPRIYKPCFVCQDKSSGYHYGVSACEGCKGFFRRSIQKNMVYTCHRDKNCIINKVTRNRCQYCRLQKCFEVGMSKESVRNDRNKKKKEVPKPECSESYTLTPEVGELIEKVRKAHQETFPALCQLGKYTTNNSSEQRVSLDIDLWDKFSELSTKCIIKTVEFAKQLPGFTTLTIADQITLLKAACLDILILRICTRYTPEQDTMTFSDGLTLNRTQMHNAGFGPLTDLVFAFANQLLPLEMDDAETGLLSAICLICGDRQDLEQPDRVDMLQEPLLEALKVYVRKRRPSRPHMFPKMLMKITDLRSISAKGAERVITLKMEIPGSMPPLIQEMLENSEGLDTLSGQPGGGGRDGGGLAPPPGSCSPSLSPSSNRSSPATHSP
Procedure: as §1, §2

CC1=C(/C=C/C(C)=C/C=C/C(C)=C/C(=O)O)C(C)(C)CCC1 [ATRA, all-trans retinoic acid]
fold induction at 0.1 µM (Endogenous GR): 1.27 | Fold induction (luciferase activity normalized to beta-galactosidase activity, vs untreated control) (GR-RAR chimera): 18.6 | Subcellular distribution of GR-RAR in response to ligand (GFP-GR-RAR): translocated to the nucleus | Subcellular distribution of wild type RAR in response to ligand (GFP-RAR (wild type RAR)): always nuclear
